Counter-ions that a name gives are not always drawn.
How the values were obtained:
[1] = storage phase stability of crystalline form at 25° C./60% relative humidity; format: physicochemical; conditions: 6 months of storage at 25° C./60% relative humidity
[2] = apparent water solubility test; format: physicochemical; conditions: for Solubility: apparent water solubility, 25° C.±2° C., clarity observed by naked eye, 5 mg sample, max 100 mL water; for apparent water solubility: as shown in Comparative Example 1
Protocol: Accurately weighed 5 mg samples in a 200 mL flask which was in a water bath with temperature 25° C.±2° C., added water in a geometric fashion the flask, stirred (about 200 r/min), and observed by naked eyes to see if it was clear. Water was added every 3 mins, maximum water amount 100 mL.

Row | Structure (SMILES) | crystalline form after storage (phase stability) [1] | Solubility [2] | apparent water solubility [2]
1 | Cc1cccc(-c2nn3c(c2-c2ccnc4ccc(C(N)=O)cc24)CCC3)n1 [LY2157299 succinate cocrystal form, 2-(6-methyl-pyridin-2-yl)-3-(6-amido-quinolin-4-yl)-5,6-dihydro-4H-pyrrolo[1,2-b]pyrazole] | remained its original crystalline form | 130 µg/mL | about 130 ug/mL
2 | Cc1cccc(-c2nn3c(c2-c2ccnc4ccc(C(N)=O)cc24)CCC3)n1 [LY2157299 Monohydrate, 2-(6-methyl-pyridin-2-yl)-3-(6-amido-quinolin-4-yl)-5,6-dihydro-4H-pyrrolo[1,2-b]pyrazole, reference compound] |  | <50 µg/mL | less than 50 ug/mL
3 | Cc1cccc(-c2nn3c(c2-c2ccnc4ccc(C(N)=O)cc24)CCC3)n1 [LY2157299 fumarate cocrystal form, 2-(6-methyl-pyridin-2-yl)-3-(6-amido-quinolin-4-yl)-5,6-dihydro-4H-pyrrolo[1,2-b]pyrazole] | remained its original crystalline form | 330 µg/mL | about 330 ug/mL

Source: patent US10995083B2, “Cocrystal of 2-(6-methyl-pyridine-2-yl)-3-yl-[6-amide-quinoline-4-yl]-5,6-dihydro-4H-pyrrole[1,2-b]pyrazole, preparation method therefor, and pharmaceutical composition” (Hangzhou SoliPharma Co., Ltd., priority 2017, dated 2021)
